Data as given in patent US8663619B2, “Murgantiol as an indoor stink bug attractant” (Sterling International Inc., priority 2011, dated 2014).

Key:
[1] = tested on: brown marmorated stink bug (BMSB), Halyomorpha halys (Stål); assay: Indoor trapping experiment with murgantiol-baited Rescue! Stink Bug Traps in homes; assay type: in vivo; settings: for behavioral attraction of indoor stink bugs to baited traps: 5 mg lure on rubber septum, traps inside homes, early May, compared to blank control; for stink bugs caught relative to the blank control traps: 5 mg lure, indoor traps, blank control caught average 1 bug/trap
Experimental: A trapping experiment was carried out inside three homes with decent overwintering stink bug populations in Pittsburgh, Pa., during twelve days in early May to study potential attraction of the BMSB adults to a known Harlequin bug pheromone, murgantiol. During or before the experiment, overwintering stink bugs started waking up from their hibernation stage and walking/crawling inside homes. Three treatment lures and a blank control were tested using Sterling Rescue!® Stink Bug Traps (FIG. 1) in a block design. The three treatments included (i) 5 mg of more polar murgantiol mixture (a mixture of 8 more polar stereoisomers); (ii) 5 mg of less polar murgantiol mixture (a mixture of 8 less polar stereoisomers); and (iii) 5 mg of a racemic mixture of all 16 murgantiol stereoisomers. The test samples of (i), (ii), and (iii) were synthesized and separated based on the methods described by Zahn et al., J. Chem. Ecol. 34:238 (2008). The following scheme outlines the method starting from citronellal to prepare a racemic mixture of stereomers:
Lures were prepared by loading hexane solutions of the test compounds with 1% butylated hydroxytoluene (BHT) added as stabilizer onto grey rubber septa (5 mm sleeve-type; The West Co., Lititz, Pa.) via a rotor evaporator. The blank control dispensers were made in the same fashion as the treatment lures, but without any murgantiol mixtures—that is, rubber septum with hexane only. A set of four Sterling Rescue!® Stink Bug Traps baited with three different isomer mixture test samples of murgantiol dispensers and the blank control were set up in the same room of each selected home on the floor or hung from walls near windows (where stink bug activities were seen earlier). The starting positions of the four test traps within each set (room) were assigned randomly. The distance between traps within the same set was about 8-10 feet, depending on the size of each test room. Traps were checked every day and emptied when ≧5 bugs were captured in the best trap within the set, and their positions were re-randomized for a new replicate to minimize any positional effects.
Trap catch data were converted to proportion (P) of total captured bugs within each replicate to meet the assumptions of normality and homogeneity of variances for ANOVA (analysis of variance). Means were compared by ANOVA followed by the Duncan's multiple range test at α=0.05.

[2] = tested on: Harlequin bug, Murgantia histrionica (Hahn); settings: both sexes; insect-produced and synthetic murgantiol; laboratory bioassays; cited from earlier work

Row | SMILES | behavioral attraction of indoor stink bugs to baited traps [1] | stink bugs caught relative to the blank control traps [1] | attractiveness to BMSB adults indoors ([1]; both sexes, indoors during the overwintering and transition periods) | attraction of sexually mature Harlequin bugs [2]
1 | CC(CCC1OC1(C)C)C1C=CC(C)(O)CC1 (racemic) [racemic mixture of all 16 murgantiol stereoisomers] | significant attraction | five times | – | –
2 | CC(CCC1OC1(C)C)C1C=CC(C)(O)CC1 (stereo not shown) [murgantiol, 4-[3-(3,3-dimethyloxiran-2-yl)-1-methylpropyl]-1-methylcyclohex-2-en-1-ol] | – | – | strongly attractive | attracted sexually mature Harlequin bugs of both sexes
3 | CC(CCC1OC1(C)C)C1C=CC(C)(O)CC1 (single isomer, unassigned) [more polar murgantiol mixture] | strong attraction | six times | – | –
4 | CC(CCC1OC1(C)C)C1C=CC(C)(O)CC1 (single isomer, unassigned) [less polar murgantiol mixture] | weakly attractive | – | – | –
